The numbers were not newly measured in patent US12370168B2 (scPharmaceuticals Inc., priority 2013, dated 2025), which cites them from elsewhere.

The conditions of the series: as described in the '361 patent; cited from earlier work.

Each structure is given as a SMILES string.

Regarding `NC(CO)(CO)CO.NS(=O)(=O)c1cc(C(=O)O)c(NCc2ccco2)cc1Cl` [tris(hydroxymethyl)aminomethane salt of furosemide], the pH was 6-6.5.
